Here are results for five compounds from patent US7862811B2, “Protease inhibition for prevention or treatment of heart failure” (Regents of the University of Colorado, priority 2004, dated 2011).

Square brackets hold non-standard residues; d marks the D form. Peptide text beside a SMILES is read from it. * marks the point of attachment. Nle = CCCC[C@H](N)C(=O)O; Cbz = O=C(OCc1ccccc1)*

Data set [1] deals with MMP. As to conditions: acute pig model, orally-active; cited from earlier work.
The test system of data set [2] is RV contractile dysfunction from acute RV pressure overload.
Experimental: Pigs were subjected to RV pressure overload by constriction of the main pulmonary artery for 90 min (mean PASP 63 mmHg), followed by 30 min recovery.
Animal care: Domestic farm pigs (25-40 kg) are sedated with IM injection of ketamine HCl, followed by IV administration of fentanyl or propofol and α-chloralose. In most exemplary protocols, experiments are performed under deep general anesthesia using α-chloralose. Following anesthetic induction, pigs are intubated via tracheotomy and ventilated using a pressure-cycled ventilator. Mechanical respiration is adjusted to maintain physiologic values of arterial pH, pO2, and pCO2. All experiments are non-survival: at the conclusion of each experiment, supplemental α-chloralose is given prior to inducing ventricular fibrillation (KCl 10%, 25 cc infused IV).
Instrumentation and Hemodynamic Measurements. The experimental preparation is similar to that previously described (51). After exposure via median sternotomy, the heart is instrumented as illustrated in Appendix A.
For calpain inhibitor experiments, the proximal portion of the right coronary artery is dissected free, fitted with a transit-time ultrasonic flow probe, and cannulated with a 26 g polyethylene catheter as described (52). Digitized hemodynamic data are analyzed as previously described (53) and in Appendix A.
The purpose of this experiment is to determine whether calpain activation is mechanistically related to the development of RV dysfunction from pressure overload. Open-chest pigs will be instrumented as described. A 26 g polyethylene catheter will be inserted into the right coronary artery. […] The infusion will be begun 30 min prior to beginning pulmonary artery constriction and continued throughout the experiment. Biopsies of the RV myocardium will be obtained, followed by baseline hemodynamic measurements. Pigs will then be subjected to RV pressure overload by constriction of the main pulmonary artery for 90 min. Hemodynamic measurements will be repeated 30 min after relief of pressure overload, and a second set of RV biopsies obtained. […]
In data set [3] the test system is cultured rat lenses. As to conditions: calcium ionophore A23187; cited from earlier work.
In data set [4] the test system is m-calpain from porcine kidney. As to conditions: cited from earlier work.
For data set [5], the system named is Molt-4 cells. The settings on record: cited from earlier work.
Data set [6] relates to isolated rat hearts. As to conditions: global ischemia; cited from earlier work.
The test system of data set [7] is isolated rat hearts. The settings on record: elevated LV end-diastolic pressure without ischemia; cited from earlier work.

Turning to `NC(=O)C1=C(O)C[C@@H]2C[C@@H]3Cc4cccc(O)c4C(=O)C3=C(O)[C@]2(O)C1=O` [COL-3], in data set [1], the MMP-mediated lung injury result is “prevent”.

On to `CC(C)[C@H](NC(=O)OCc1ccccc1)C(=O)N[C@H](C=O)Cc1ccccc1` [MDL-28170, carbobezoxy-valinyl-phenylalaninal] (Cbz-Val-Phe-aldehyde), for which the “attenuation of RV dysfunction resulting from acute RV pressure overload (RVPO)” value in data set [2] (90 min RVPO, 30 min recovery, versus vehicle) is recorded as “more than 50%”. Also, in data set [2] (pig, in vivo), the independent hemodynamic effects entry is listed as “no independent hemodynamic effects”. Also, the “preload-adjusted external work of the RV free wall” value in data set [2] (thirty min after release of pulmonary artery constriction, n=7, p<0.05 vs vehicle) is 69 % of baseline.

As for `CC(C)C[C@@H](C=O)NC(=O)[C@@H](NS(=O)(=O)c1ccc(F)cc1)C(C)C` [SJA6017, N-(4-fluorophenylsulfonyl)-L-valyl-L-leucinal], the “nuclear opacity and proteolysis of crystallins and alpha-spectrin” value in data set [3] is “reduced”. In addition, the “binding to the active site of m-calpain” value in data set [4] (casein zymography) is on record as “reversibly bound”. For the same compound, in data set [4] (in vitro), the “inhibition of purified m-calpain” value was “strong inhibition”. Moreover, the cell permeability result in data set [5] is reported as “cell-permeable”.

Consider `CCCC[C@@H](C=O)NC(=O)[C@H](CC(C)C)NC(=O)[C@H](CC(C)C)NC(C)=O` [calpain inhibitor-1] (Ac-Leu-Leu-[Nle]-aldehyde), for which the “cytoskeletal degradation and myocardial stunning” value in data set [6] is “attenuates”.

In the case of `CCCC[C@@H](C=O)NC(=O)[C@H](CC(C)C)NC(=O)OCc1ccccc1` [calpeptin], the “TnI degradation and stunning” value in data set [7] is “prevented”.
